In paper PMC11510191, “Exploring Benzo[h]chromene Derivatives as Agents against Protozoal and Mycobacterial Infections” (Pharmaceuticals, 2024):
In brackets after ≈: the same amount, converted by molar mass. Where two headings read alike, the source gives them in different places.

How the values were obtained:
[1] = in vitro; settings: mouse
[2] = system: Leishmania infantum (L. i) promastigotes; test: Leishmanicidal activity on L. infantum promastigotes (resazurin); settings: for IC50: Leishmania infantum, 48 h, read-out: Leishmanicidal Activity IC50—L. i; for Selectivity Index L929/ L. i: SI = CC50 L929/IC50 parasites
Description: (§1) The culture of L. braziliensis (MHOM/CO/88/UA301) and L. infantum (MCAN/ES/92/BCN83) was obtained from the Facultad de Farmacia, Universidad Complutense de Madrid, Spain.
(§2) The maintenance of the strains, the form of cultivation, and the isolation of shape promastigota followed the procedures described by Roldós et al. [8]. The promastigotes were grown at 22 °C in Schneider’s Drosophila medium supplemented with 20% FBS. The assay was performed using a modification of a previous method [47]. Promastigotes (2 × 10^6 parasites/well) were cultured in 96-well plastic plates. Compounds were dissolved in dimethylsulfoxide (DMSO). Different dilutions of the compounds up to a 200 µL final volume were added. After 48 h at 26 °C, 20 µL of 2 mM resazurin solution was added and the oxidation–reduction was quantified at 570 and 600 nm. The solution of resazurin was prepared at 2.5 mM in phosphate-buffered solution (PBS), pH 7.4, and filtered through 0.22 µM prior to use. All tests were carried out in triplicate. Resazurin sodium salt was obtained from Sigma–Aldrich (St. Louis, MO, USA) and stored at 4 °C protected from light. The efficacy of each compound was estimated by calculating the IC50 values.

[3] = system: Leishmania brazilensis (L. b) promastigotes; test: Leishmanicidal activity on L. braziliensis promastigotes (resazurin); settings: for IC50: Leishmania, 48 h, read-out: Leishmanicidal Activity IC50—L. b; for Selectivity Index L929/ L. b: SI = CC50 L929/IC50 parasites
Description: as §1, §2

[4] = system: L. innocua (G+); test: MIC broth microdilution; assay type: cell-based; settings: Listeria innocua, 24 h
[5] = system: M. tuberculosis ATCC H37Rv; test: MIC broth microdilution; assay type: cell-based; settings: Mycobacterium tuberculosis, H37RV
[6] = system: M. intracellulare LIID-02; test: MIC broth microdilution; assay type: cell-based; settings: Mycobacterium intracellulare, LIID02
[7] = system: M. tuberculosis CIPTIR-F296; test: MIC broth microdilution; assay type: cell-based; settings: Mycobacterium tuberculosis, CIPTIRF296
[8] = system: M. tuberculosis CIPTIR -D152; test: MIC broth microdilution; assay type: cell-based; settings: Mycobacterium tuberculosis
[9] = system: P. aeruginosa (G−); test: MIC broth microdilution; assay type: cell-based; settings: Pseudomonas aeruginosa, 24 h
[10] = system: S. typhi (G−); test: MIC broth microdilution; assay type: cell-based; settings: Salmonella enterica, 24 h
[11] = system: E. faecalis (G+); test: MIC broth microdilution; assay type: cell-based; settings: Enterococcus faecalis, 24 h
[12] = system: T. cruzi epimastigotes; test: Trypanocidal activity on T. cruzi epimastigotes (CL-B5 lacZ, CPRG); assay type: cell-based, Trypanosoma cruzi clone CL-B5; settings: for Selectivity Index L929/ T. cruzi: SI = CC50 L929/IC50 parasites; for IC50: 72 h
Description: For in vitro studies of T. cruzi. the clone CL-B5 was used. Parasites were stably transfected with the Escherichia coli β-galactosidase gene (lacZ), provided by Facultad de Farmacia (Universidad Complutense de Madrid). Epimastigotes were grown at 28 °C in liver infusion tryptose broth (Difco, Detroit, MI, USA) with 10% fetal bovine serum (FBS) (Gibco, Carlsbad, CA, USA), penicillin (Ern S.A., Barcelona, Spain), and streptomycin (Reig Jofré S.A., Barcelona. Spain), as described previously, and harvested during the exponential growth phase. Briefly, the screening assay was performed in 96-well microplates (Sarstedt, Inc., Newton, NC, USA) with cultures that had not reached the stationary phase. Briefly, epimastigotes were seeded at 2 × 10^5 parasites/mL in 200 µL growth media. The plates were then incubated with the respective compounds at 28 °C for 72 h. Afterwards, 50 µL of CPRG solution was added, resulting in a final concentration of 200 µM. The plates were incubated at 37 °C for an additional 4 h and then read at 595 nm. Each concentration was tested in triplicate. […] These values were calculated from the sigmoidal dose–response curve adjustment using the statistical software program Graph-Pad Prims 3.0. Benznidazole was used as a reference drug.

[13] = system: B. cereus (G+); test: MIC broth microdilution; assay type: cell-based; settings: Bacillus cereus, 24 h
[14] = system: L. monocytogenes (G+); test: MIC broth microdilution; assay type: cell-based; settings: Listeria monocytogenes, 24 h
[15] = system: M. intracellulare LIID-01; test: MIC broth microdilution; assay type: cell-based; settings: Mycobacterium intracellulare, LIID01
[16] = system: E. coli (G−); test: MIC broth microdilution; assay type: cell-based; settings: Escherichia coli, 24 h
[17] = system: M. abscessus LIID-02; test: MIC broth microdilution; assay type: cell-based; settings: Mycobacteroides abscessus, LIID02, 72 h
[18] = system: M. abscessus LIID-01; test: MIC broth microdilution; assay type: cell-based; settings: Mycobacteroides abscessus, LIID01, 72 h
[19] = system: M. fortuitum LIID-01; test: MIC broth microdilution; assay type: cell-based; settings: Mycolicibacterium fortuitum, LIID01, 72 h
[20] = system: M. abscessus LIID-03; test: MIC broth microdilution; assay type: cell-based; settings: Mycobacteroides abscessus, LIID03, 72 h
[21] = system: S. aureus (G+); test: MIC broth microdilution; assay type: cell-based; settings: Staphylococcus aureus, 24 h
[22] = system: M. luteus (G+); test: MIC broth microdilution; assay type: cell-based; settings: Micrococcus luteus, 24 h
[23] = Cytotoxicity on L929 fibroblasts (resazurin); settings: mouse
[24] = system: NCTC929 fibroblast cells (L929); test: Cytotoxicity on L929 fibroblasts (resazurin); settings: L929 fibroblasts
[25] = Trypanosoma cruzi, epimastigotes, read-out: Trypanocidal Activity IC50 T. cruzi

SMILES	IC50 [2] [µM]	IC50 [3] [µM]	MIC [4] [µg/mL]	MIC [5] [µg/mL]	MIC [6] [µg/mL]	MIC [7] [µg/mL]	MIC [8] [µg/mL]	MIC [9] [µg/mL]	MIC [10] [µg/mL]	MIC [11] [µg/mL]	MIC [13] [µg/mL]	MIC [14] [µg/mL]	MIC [15] [µg/mL]	MIC [16] [µg/mL]	MIC [17] [µg/mL]	MIC [18] [µg/mL]	MIC [19] [µg/mL]	MIC [20] [µg/mL]	MIC [21] [µg/mL]	MIC [22] [µg/mL]	also measured
CCCCCCCCCCCCCCCCOP(=O)([O-])OCC[N+](C)(C)C [Miltefosine, reference compound]	25.1	64																			CC50 at 24 h [1]: 2750 µM; Selectivity Index L929/ L. i [2]: 109.7; Selectivity Index L929/ L. b [3]: 43.0
C#CCCC(=O)Oc1c2c(c3ccccc3c1OC(=O)CCC#C)OC(C)(C)C=C2 [Compound 1a]	24.9	10.7	> 200	> 200	> 200	> 200	> 200	> 200	> 200	> 200	> 200	> 200	50 (≈ 124 µM)	> 200	> 200	> 200	> 200	> 200	100 (≈ 248 µM)	> 200	Selectivity Index L929/ L. i [2]: 4; Selectivity Index L929/ T. cruzi [12]: 6; IC50 [12, 25]: 19.2 µM; Selectivity Index L929/ L. b [3]: 10; CC50 at 24 h [23]: 106 µM
CC(=O)O[C@@H]1[C@@H](OC(C)=O)[C@H](OC(C)=O)CO[C@H]1n1cc(CCCC(=O)Oc2c3c(c4ccccc4c2OC(=O)CCCc2cn([C@@H]4OC[C@@H](OC(C)=O)[C@H](OC(C)=O)[C@H]4OC(C)=O)nn2)OC(C)(C)C=C3)nn1 [Compound 3e]	> 256	> 256	> 200	> 200	> 200	> 200	> 200	> 200	100 (≈ 96.8 µM)	> 200	> 200	> 200	50 (≈ 48.4 µM)	> 200	> 200	> 200	> 200	> 200	> 200	> 200	IC50 [12, 25]: > 256 µM; CC50 at 24 h [23]: > 256 µM
Cc1ccc(S(=O)(=O)n2cc(CCC(=O)Oc3c4c(c5ccccc5c3OC(=O)CCc3cn(S(=O)(=O)c5ccc(C)cc5)nn3)OC(C)(C)C=C4)nn2)cc1 [Compound 2f]	38.2	14.5	> 200	> 200	> 200	> 200	> 200	> 200	> 200	> 200	> 200	> 200	50 (≈ 62.7 µM)	> 200	> 200	> 200	> 200	> 200	> 200	> 200	Selectivity Index L929/ L. i [2]: 1; Selectivity Index L929/ T. cruzi [12]: 2; IC50 ([12]; Trypanosoma cruzi, read-out: Trypanocidal Activity IC50 T. cruzi, epimastigotes, 72 h): 21.4 µM; IC50 ([12]; epimastigotes, read-out: Trypanocidal Activity IC50 T. cruzi): 21.1 µM; Selectivity Index L929/ L. b [3]: 2; CC50 at 24 h [23]: 31.8 µM; Cytotoxicity (in words) [24]: most cytotoxic
CC1(C)C=Cc2c(OC(=O)CCCc3cn(Cc4ccc([N+](=O)[O-])cc4)nn3)c(OC(=O)CCCc3cn(Cc4ccc([N+](=O)[O-])cc4)nn3)c3ccccc3c2O1 [Compound 3h]	> 256	> 256	> 200	> 200	> 200	> 200	> 200	> 200	100 (≈ 127 µM)	> 200	> 200	> 200	> 200	> 200	100 (≈ 127 µM)	100 (≈ 127 µM)	> 200	100 (≈ 127 µM)	100 (≈ 127 µM)	> 200	IC50 [12, 25]: > 256 µM; CC50 at 24 h [23]: > 256 µM
Cc1ccc(S(=O)(=O)n2cc(CCCC(=O)Oc3c4c(c5ccccc5c3OC(=O)CCCc3cn(S(=O)(=O)c5ccc(C)cc5)nn3)OC(C)(C)C=C4)nn2)cc1 [Compound 3f]	46.6	17.6	100 (≈ 121 µM)	> 200	> 200	> 200	> 200	100 (≈ 121 µM)	> 200	> 200	100 (≈ 121 µM)	100 (≈ 121 µM)	100 (≈ 121 µM)	100 (≈ 121 µM)	100 (≈ 121 µM)	100 (≈ 121 µM)	100 (≈ 121 µM)	100 (≈ 121 µM)	100 (≈ 121 µM)	100 (≈ 121 µM)	Selectivity Index L929/ L. i [2]: 7; Selectivity Index L929/ T. cruzi [12]: 13; IC50 [12, 25]: 24.7 µM; Selectivity Index L929/ L. b [3]: 18; CC50 at 24 h [23]: 312 µM; Cytotoxicity (in words) [24]: no cytotoxicity
